Measured values taken from PubChem BioAssay AID1645866 (Buhrlage Lab, Dana-Farber Cancer Institute and Novartis …, 2021).
Active and inactive are the calls of the source.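 The calls were made as follows: active = in confirmatory dose-response testing, peak deubiquitinase inhibition of 30% or more; inactive = the rest.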

molecular target: Ubiquitin carboxyl-terminal hydrolase 28 (Homo sapiens) (UniProt Q96RU2); test: Ubiquitin-specific peptidase 28 DUB inhibitors, biochemical concentration-dependence assay, validation of primary screening hits (AID 1645866); details: purified USP28, ubiquitin-rhodamine fluorescence, 30 min
Sequence (Q96RU2 whole entry, looked up): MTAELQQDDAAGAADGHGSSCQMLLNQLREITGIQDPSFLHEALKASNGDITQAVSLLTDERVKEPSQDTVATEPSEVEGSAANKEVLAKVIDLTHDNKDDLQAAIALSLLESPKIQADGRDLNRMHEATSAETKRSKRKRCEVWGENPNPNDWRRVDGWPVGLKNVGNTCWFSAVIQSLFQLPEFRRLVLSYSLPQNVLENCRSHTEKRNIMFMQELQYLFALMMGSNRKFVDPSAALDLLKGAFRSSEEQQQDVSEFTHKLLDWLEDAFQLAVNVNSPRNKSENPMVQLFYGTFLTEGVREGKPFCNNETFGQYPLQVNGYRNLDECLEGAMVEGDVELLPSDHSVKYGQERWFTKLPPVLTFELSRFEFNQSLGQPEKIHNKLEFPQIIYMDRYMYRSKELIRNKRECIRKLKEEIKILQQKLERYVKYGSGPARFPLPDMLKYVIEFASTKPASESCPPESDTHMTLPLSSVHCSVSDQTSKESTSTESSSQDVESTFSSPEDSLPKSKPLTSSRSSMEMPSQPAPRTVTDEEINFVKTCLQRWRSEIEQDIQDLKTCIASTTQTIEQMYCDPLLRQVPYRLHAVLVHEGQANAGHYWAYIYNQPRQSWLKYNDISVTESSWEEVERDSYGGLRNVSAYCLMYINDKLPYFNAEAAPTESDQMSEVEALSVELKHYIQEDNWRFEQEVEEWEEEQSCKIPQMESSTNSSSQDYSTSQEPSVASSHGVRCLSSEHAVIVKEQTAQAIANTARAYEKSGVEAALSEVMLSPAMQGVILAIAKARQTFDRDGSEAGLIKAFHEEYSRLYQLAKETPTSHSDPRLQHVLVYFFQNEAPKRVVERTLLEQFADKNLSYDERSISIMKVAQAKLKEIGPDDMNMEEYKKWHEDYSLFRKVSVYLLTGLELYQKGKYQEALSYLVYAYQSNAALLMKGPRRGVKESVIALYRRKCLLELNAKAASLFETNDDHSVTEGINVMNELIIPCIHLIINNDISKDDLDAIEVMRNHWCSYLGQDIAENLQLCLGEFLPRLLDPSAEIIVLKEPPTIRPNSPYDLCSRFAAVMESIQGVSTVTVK

**Q.** With O=C(Cn1c(=O)n(Cc2ccc(F)cc2)c(=O)c2ncccc21)Nc1ccccc1 as the molecule, how does the IC50 read?
**A.** 29.5 µM

**Q.** For O=C(NCc1nc2ccccc2[nH]1)c1cccc(S(=O)(=O)N2CCc3ccccc32)c1, which IC50 is on record?
**A.** 31.4 µM

**Q.** For CC1=C(c2ccc(C)c(C)c2)S(=O)(=O)NC1=NCC(=O)NCCCc1ccccc1, which IC50 is on record?
**A.** 25.5 µM

**Q.** Cc1ccc2c(c1)-c1c(c(C(=O)N3CCN(c4ccccc4)CC3)nn1C)CS2 was tested. Which IC50 did it give?
**A.** > 50 µM (inactive)

**Q.** COc1ccc(-c2cc3nc([C@H](C)NC(=O)Cc4ccccc4C)nn3cn2)cc1 was tested. Which IC50 did it give?
**A.** 2.61 µM

**Q.** How did the IC50 turn out when Cc1nc2nc(SCc3nc4ccccc4n3C)[nH]c2cc1Br was run?
**A.** 2.9 µM

**Q.** How did the IC50 turn out when Cc1cc(N2CCN(c3ncccn3)CC2)nc2ccc(NC(=O)/C=C/c3ccccc3Cl)cc12 was run?
**A.** 7.79 µM

**Q.** For COc1ccccc1NC(=O)c1cc2c(C)nn(Cc3ccccc3)c2s1, which IC50 is on record?
**A.** 38.1 µM

**Q.** For Cc1cc(C(F)(F)F)n2nc(C3CCN(C(=O)c4cnn(C)c4C)C3)cc2n1 (stereo not drawn), which IC50 is on record?
**A.** > 50 µM (inactive)

**Q.** Which IC50 does the source give for COc1ccc(OC)c(-c2c(C#N)c(C)nc3c2N2CCC3CC2)c1 here?
**A.** 1.8 µM

**Q.** How did the IC50 turn out when Cc1ccc(-n2c(-c3ccccc3)cn3c4c(=O)[nH]c(=O)n(C)c4nc23)cc1C was run?
**A.** 0.641 µM

**Q.** With N#C/C(=C\c1ccc(OCc2cccc(C(=O)O)c2)cc1)c1ccc(F)cc1 as the molecule, how does the IC50 read?
**A.** 17.8 µM

**Q.** CC(=O)Nc1ccc([C@H]2OCC(=O)N(C3CCOCC3)[C@@H]2CO)cc1 was tested. Which IC50 did it give?
**A.** > 50 µM (inactive)

**Q.** For Cc1ccc2nc(-c3cccc(-c4nc5ccc(C)cc5[nH]4)n3)[nH]c2c1, which IC50 is on record?
**A.** > 50 µM (inactive)

**Q.** With O=C(COc1ncnc2ccccc12)Nc1ccc2c(c1)OC1(CCCC1)O2 as the molecule, how does the IC50 read?
**A.** 24 µM

**Q.** How did the IC50 turn out when Cc1cnc2nc3c(cc2c1)CN(CCc1ccc(Cl)cc1)CC3 was run?
**A.** > 50 µM (inactive)

**Q.** COCC(C)Nc1ncc(-c2cnccn2)c(-c2ccc(C)s2)n1 (stereo not drawn) was tested. Which IC50 did it give?
**A.** > 50 µM (inactive)

**Q.** How did the IC50 turn out when O=C(NCc1ccco1)c1ccc2c(c1)N(Cc1cccc(F)c1)C(=O)c1ccccc1S2 was run?
**A.** > 50 µM (inactive)

**Q.** For CCCCNC(=O)C1Sc2nnc(-c3ccccc3)n2NC1c1ccccc1 (stereo not drawn), which IC50 is on record?
**A.** 18.1 µM

**Q.** Which IC50 does the source give for O=C(CCCC(=O)c1ccccc1)Nc1ccc(F)cc1 here?
**A.** 35 µM

**Q.** For C=C(NC(=O)C(=C)NC(=O)c1csc(-c2ccc3c(n2)-c2csc(n2)-c2csc(n2)C(C(C)C2CO2)NC(=O)C(Cc2ccc(O)cc2)NC(=O)c2csc(n2)C(C(O)c2ccccc2)NC(=O)c2nc(sc2C)C(CC(N)=O)NC(=O)c2csc-3n2)n1)C(=O)O (stereo not drawn), which IC50 is on record?
**A.** 24.9 µM

**Q.** Which IC50 does the source give for CCOc1ccc(CCNC(=O)c2cccc3c2C(=O)N(CCOC)C3)cc1OCC here?
**A.** 16.1 µM

**Q.** COc1ccccc1C(=O)N1CCC(S(=O)(=O)c2ccc(-c3ccco3)cc2)CC1 was tested. Which IC50 did it give?
**A.** 42.9 µM

**Q.** How did the IC50 turn out when CC(C)Cc1nc2oc3c(N(C)CCO)ncnc3c2c2c1CCC2 was run?
**A.** > 50 µM (inactive)

**Q.** With Cc1cccc(C)c1NC(=O)Cn1c(=O)n(CCCCC(=O)NCc2ccc3c(c2)OCO3)c(=O)c2ccccc21 as the molecule, how does the IC50 read?
**A.** 1.88 µM

**Q.** CC1=C(C(=O)Nc2ccccc2C)C(c2ccc(OCc3ccccc3F)cc2)n2ncnc2N1 (stereo not drawn) was tested. Which IC50 did it give?
**A.** 21.6 µM

**Q.** Cc1ccc(C)c(NS(=O)(=O)c2cc(-c3cnc(C4CC4)o3)ccc2C)c1 was tested. Which IC50 did it give?
**A.** 34.7 µM

**Q.** Which IC50 does the source give for CCC(=O)Nc1cccnc1-c1ccc(C(=O)Nc2cccc(OC)c2)cc1 here?
**A.** 14.5 µM

**Q.** For CC[C@H](C)[C@H](NC(=O)[C@H]([C@@H](C)CC)N(C)C(C)=O)C(=O)N[C@H](C(=O)N[C@@H](CC(C)C)C(=O)C1(C)CO1)[C@@H](C)O (stereo partly drawn), which IC50 is on record?
**A.** > 50 µM (inactive)

**Q.** Which IC50 does the source give for Cc1cc(C(=O)Nc2cc(C)n(Cc3ccc(Cl)cc3)n2)no1 here?
**A.** 13.4 µM

**Q.** With O=C(Nc1ccncc1)c1ncoc1-c1cccc(Cl)c1 as the molecule, how does the IC50 read?
**A.** 32.3 µM

**Q.** With Cc1nc(C(=O)NC2(O)C(=O)c3ccccc3C2=O)cs1 as the molecule, how does the IC50 read?
**A.** 14 µM

**Q.** For COc1ccc(C2CC(=O)Nc3n[nH]c(-c4ccccc4)c32)cc1OC (stereo not drawn), which IC50 is on record?
**A.** 33.7 µM

**Q.** Which IC50 does the source give for CCCCC/C=C/C=C/C(=O)OC1C(O)CC(c2ccc3c(c2O)C(=O)c2c(O)cc4cc(C)cc(O)c4c2C3=O)OC1C (stereo not drawn) here?
**A.** 14.6 µM

**Q.** For Cc1cccc(NC(=O)CSc2nnc(-c3n[nH]c4c3CCC4)n2N)c1C, which IC50 is on record?
**A.** 17.6 µM

**Q.** With Cc1cccc(COc2ccc(C3SCC(=O)Nc4n[nH]c(C)c43)cc2)c1 (stereo not drawn) as the molecule, how does the IC50 read?
**A.** 5.31 µM

**Q.** CC(=O)c1cccc(NC(=O)c2ccc(N3CCCCC3)nn2)c1 was tested. Which IC50 did it give?
**A.** 32.4 µM

**Q.** With CCC1=C(c2ccc(C)cc2)S(=O)(=O)NC1=NCC(=O)NCc1ccccc1F as the molecule, how does the IC50 read?
**A.** 33.2 µM

**Q.** For Cc1ccc(NC(=O)Cc2nnc3cc(-c4nc(C)no4)ccn23)cc1, which IC50 is on record?
**A.** 5.02 µM

**Q.** Which IC50 does the source give for CC1CCN(c2nc(F)c3c(c2F)S(=O)(=O)CCN3Cc2cccnc2)CC1 here?
**A.** > 50 µM (inactive)

**Q.** With O=C(COc1ccc2c(-c3ccccc3)cc(=O)oc2c1)Nc1cccnc1 as the molecule, how does the IC50 read?
**A.** 2.54 µM

**Q.** How did the IC50 turn out when O=C(CSc1nc2ccncc2[nH]1)Nc1ccc(Br)cc1F was run?
**A.** 26.5 µM

**Q.** How did the IC50 turn out when COc1ccc(-n2c(=O)c(CCC(=O)O)nc3ccccc32)cc1 was run?
**A.** > 50 µM (inactive)

**Q.** How did the IC50 turn out when CC(C)Oc1ccc(C(=O)Nc2cccc(S(=O)(=O)N3CCCC3)c2)cc1 was run?
**A.** 10.7 µM

**Q.** How did the IC50 turn out when COc1ccccc1CNC(=O)c1c(O)c2cnn(-c3cccc(C)c3)c2[nH]c1=O was run?
**A.** 9.36 µM

**Q.** How did the IC50 turn out when Cc1ccc(S(=O)(=O)N2CCC3(CC2)NC(=O)c2ccccc2N3)c(C)c1 was run?
**A.** 31.3 µM

**Q.** O=C(CSc1nnc(CNC(=O)c2ccccc2F)o1)Nc1ccc(OC(F)(F)F)cc1 was tested. Which IC50 did it give?
**A.** 28.9 µM

**Q.** With COc1cccc(CNC(=O)C2=Cc3cccc(OC)c3OC2)c1 as the molecule, how does the IC50 read?
**A.** 8.65 µM
